From the NIST ThermoML archive (doi:10.1021/je900725w)

Columns and labels:
[1] = 308.15 K, 101.33 kPa, Liquid
[2] = wn = mass fraction of the nth substance listed; details: 101 kPa, Liquid; for viscosity: Capillary tube (Ostwald / Ubbelohde) method; for mass density: Vibrating tube method
[3] = relative permittivity at zero frequency (dimensionless); wn = mass fraction of the nth substance listed; details: 101 kPa, Liquid, Parallel plate capacitor

CCOCCO [2-ethoxyethan-1-ol]
Details	mass density [kg/m3]
[1]	924.97

Details	viscosity [mPa·s]
[1], Capillary tube (Ostwald / Ubbelohde) method	1.828

CCOCCO [2-ethoxyethan-1-ol] + O
Details	mass density, w1 = 0.25 [kg/m3]	mass density, w1 = 0.4 [kg/m3]	mass density, w1 = 0.5 [kg/m3]	relative permittivity at zero frequency, w1 = 0.25	relative permittivity at zero frequency, w1 = 0.4	relative permittivity at zero frequency, w1 = 0.5	viscosity, w1 = 0.25 [mPa·s]	viscosity, w1 = 0.4 [mPa·s]	viscosity, w1 = 0.5 [mPa·s]
[2], 308.15 K	997.58	997.47	993.61	–	–	–	1.843	1.955	1.923
[2], 313.15 K	992.45	991.01	985.14	–	–	–	1.529	1.702	1.72
[2], 318.15 K	988.07	986.96	980.04	–	–	–	1.274	1.427	1.455
[2], 323.15 K	983.94	983.78	976.1	–	–	–	1.092	1.232	1.276
[3], 308.15 K	–	–	–	60.13	50.54	44.3	–	–	–
[3], 313.15 K	–	–	–	58.7	49.28	43.03	–	–	–
[3], 318.15 K	–	–	–	57.37	48.14	41.95	–	–	–
[3], 323.15 K	–	–	–	56.11	47.1	40.96	–	–	–
